# Results: publication PMC12670405, “Second-Generation AURKA-Targeting PROTACs: Structural Optimization toward in Vivo Degradation in Neuroblastoma” (Journal of Medicinal Chemistry, 2025)
# Where two headings read alike, the source gives them in different places.
# Legend:
# MYCN = MYCN protein levels, Simple Western; format: cell-based, human; settings: for MYCN codepletion: IMR-32, 500 nM, 24h postexposure; for DC50: read-out: MYCN DC50 24h
# Experimental: Cells were seeded in T-25 flasks at different densities ranging from 1 to 2 million cells per flask and allowed to adhere for 1–2 days. In experiments involving compound treatment, this was done by medium replacement containing the compound(s) of interest in their corresponding concentrations. In competition binding experiments, cells were first pretreated with an excess of MK-5108, thalidomide or MG-132 for 1 h by shaking gently at room temperature prior to addition of SK4454 or SK5527. All samples were normalized to contain the same percentage of DMSO as the negative DMSO controls. Cells were harvested on ice at their respective time points by scraping, washed with ice-cold PBS to collect remaining cells, and centrifuged (2500 rpm, 4 °C). A second washing and centrifugation step was performed prior to collection of the final cell pellets which were then snap-frozen in liquid nitrogen and kept frozen at −80 °C until further processing. Lysis of cell pellets occurred in cold RIPA buffer (0.5% w/v Sodium Deoxycholate, 150 mM NaCl, 50 mM TrisHCl pH 7.5, 0.1% w/v SDS, 1% w/v NP-40) supplemented with protease and phosphatase inhibitors (Roche, #11836145001, #04906845001) by rotating gently at 4 °C for 1h, followed by a centrifugation step for 10 min (10,000 rpm, 4 °C). The supernatant was collected and concentrations of the obtained protein lysates were measured using the Pierce BCA Protein Assay Kit (Thermo Fisher Scientific, #23227).
# Simple Western analyses were performed with the Wes instrument (Bio-Techne) using the 12–230 kDa Wes Separation module and the EZ standard pack reagent 1 (Biotechne, #SM-W001, #PS-ST01EZ-8) following the manufacturer’s protocol. Protein lysates were loaded at 0.8 μg/μL under denaturing conditions (0.2 μg/μL for MYCN detection). Chemiluminescence peaks were generated by the Compass Software (Bio-Techne) and the area under the peaks calculated using the Gaussian fit method. Per lane, quantified data were always normalized to that of the loading control (Vinculin) prior to calculating fold changes relative to the negative DMSO control. Mean fold changes are calculated from 3 individual experiments. A list of the primary and secondary antibodies used can be found in the Supporting Information (Supplementary Table S7).
# Graphs were generated using GraphPad Prism Software (version 10.1.2) or RStudio (R-4.3.2). All dose–response curves were computed on GraphPad Prism using the Variable Slope (four parameters) equation. Absolute half-maximal degradation (DC50), growth inhibitory (GI50) and enzymatic inhibitory (IC50) concentrations, as well as inhibition constants (Ki) were derived from dose–response curves via interpolation. Statistical tests were performed on GraphPad Prism and detailed in the figure legends. Unless otherwise stated, “n” in the figure legends indicates the number of independent experiments conducted at different times.
# ZNF286A = assay: LC-MS/MS proteome profiling; format: cell-based, Homo sapiens; settings: SK5527 vs DMSO (24h)
# Experimental: (§1) Analysis of the mass spectrometry data was performed in DiaNN (version 1.9). Precursor false discovery rate was set at 1%. Spectra were searched against the Homo sapiens protein sequences in the Uniprot database (database release version of 2024_01), containing 20,597 sequences (www.uniprot.org) and the imbedded protein contaminant list. Enzyme specificity was set as C-terminal to arginine and lysine, also allowing cleavage at proline bonds with a maximum of 2 missed cleavages. Variable modifications were set to oxidation of methionine residues and acetylation of protein N-termini while fixed modification was set to carbamidomethylation of cystein residues. Matching between runs was enabled. Mainly default settings were used, except for the addition of a 400-900 m/z precursor mass range filter and MS1 and MS2 mass tolerance was set to 10 and 20 ppm respectively.
# (§2) Further data analysis of the results was performed with an in-house script in the R programming language.
# (§3) Protein expression matrices were prepared as follows: the DIA-NN main report output table was filtered at a precursor and protein library q-value cut-off of 1 % and only proteins identified by at least one proteotypic peptide were retained. After pivoting into a wide format, iBAQ intensity columns were then added to the matrix using the DIAgui’s R package get_IBAQ function. PG MaxLFQ intensities were log2 transformed and replicate samples were grouped. Proteins with less than 3 valid values in at least one group were removed and missing values were imputed from a normal distribution centered around the detection limit (package DEP) leading to a list of 7,759 quantified proteins in the experiment, used for further data analysis. […]
# (§4) Statistical significance for differential regulation was set to a false discovery rate (FDR) of < 0.05 and |log2FC| = 2.
# FAM204A = assay: LC-MS/MS proteome profiling; format: cell-based, Homo sapiens; settings: SK5527 vs DMSO (24h)
# Experimental: as §1, §2, §3, §4
# ZNF770 = assay: LC-MS/MS proteome profiling; format: cell-based, Homo sapiens; settings: SK5527 vs DMSO (24h)
# Experimental: as §1, §2, §3, §4
# ETV3 = assay: LC-MS/MS proteome profiling; format: cell-based, Homo sapiens; settings: SK5527 vs DMSO (24h)
# Experimental: as §1, §2, §3, §4
# MTERF3 = assay: LC-MS/MS proteome profiling; format: cell-based, Homo sapiens; settings: SK5527 vs DMSO (24h)
# Experimental: as §1, §2, §3, §4
# ZNF417 = assay: LC-MS/MS proteome profiling; format: cell-based, Homo sapiens; settings: SK5527 vs DMSO (24h)
# Experimental: as §1, §2, §3, §4
# BAZ2A = assay: LC-MS/MS proteome profiling; format: cell-based, Homo sapiens; settings: SK5527 vs DMSO (24h)
# Experimental: as §1, §2, §3, §4
# ESCO2 = assay: LC-MS/MS proteome profiling; format: cell-based, Homo sapiens; settings: SK5527 vs DMSO (24h)
# Experimental: as §1, §2, §3, §4
SMILES,MYCN codepletion (MYCN),DC50 (MYCN; IMR-32),DC50 (MYCN; NGP),DC50 (MYCN; SJNB-8),logFC ZNF286A (ZNF286A),logFC FAM204A (FAM204A),logFC ZNF770 (ZNF770),logFC ETV3 (ETV3),logFC MTERF3 (MTERF3),logFC ZNF417 (ZNF417),logFC BAZ2A (BAZ2A),logFC ESCO2 (ESCO2)
Cc1cc(Nc2ccc(F)c(CC3(C(=O)N4CCC(F)(CN5CCN(c6ccc(N7CCC(=O)NC7=O)cn6)CC5)CC4)CCN(Cc4cccc(Cl)c4F)CC3)n2)n[nH]1 [SK5527],~50%,236 nM,89 nM,772 nM,-2.95,2.65,-4,-2.36,-2.09,-2.12,2.83,-2.1
Cc1cc(Nc2ccc(F)c(CC3(C(=O)N4CCC(CN5CCN(c6ccc(N7CCC(=O)NC7=O)cn6)CC5)CC4)CCN(Cc4cccc(Cl)c4F)CC3)n2)n[nH]1 [SK4454],~50%,117 nM,1360 nM,1390 nM,–,–,–,–,–,–,–,–
